Data on 9 molecules can be found in ChEMBL document CHEMBL1201862, “PubChem BioAssay data set” (2004).

Test in all cases: NCI tumour cell line growth inhibition, 48 h
For test [1], the system named is RPMI-8226.
In test [2] the test system is COLO 205.
Test [3] relates to NCI-H226.
Test [4] concerns A549.
Test [5] has as its system SK-MEL-2.
The test system of test [6] is UACC-257.
Test [7] relates to SF-268.
The subject of test [8] is SF-295.
For test [9], the system named is SNB-19.
For test [10], the system named is SK-MEL-28.
Test [11] has as its system MOLT-4.
Test [12] has as its system MDA-MB-231.
In test [13] the test system is 786-0.
Test [14] relates to HT-29.
For test [15], the system named is HCC 2998.
The test system of test [16] is HCT-15.
Test [17] has as its system Malme-3M.
Test [18] relates to SF-539.
The subject of test [19] is A498.
Test [20] deals with IGROV-1.

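Briefly, cells in 96-well plates were exposed to five compound concentrations for 48 h, and endpoints were estimated by linear interpolation. Here, GI50 denotes the concentration required for 50% inhibition of growth.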 Calls of active or inactive are those of the source. No stated cut-off is given here; in the data, active = GI50 up to about 1.1 µM and inactive = higher.

Consider `COc1ccc2cc(CN3CCC(C4CCNCC4)CC3)ccc2c1`, for which the GI50 in [1] is 1.53 µM (inactive); in test [2], 1.69 µM (inactive); in [3], 7.93 µM (inactive); in test [4] it was 12.2 µM (inactive); in test [5] it was 1.91 µM (inactive); in test [6], 1.87 µM (inactive). Further, the GI50 in [7] was 2.58 µM (inactive); in [8], 1.89 µM (inactive); in test [9], 6.65 µM (inactive); in test [10], 1.75 µM (inactive); in test [11], 0.437 µM (active); in [12], 2.2 µM (inactive). For the same molecule, the GI50 in test [13] is 1.67 µM (inactive); in test [14] it was 1.3 µM (inactive); in test [15], 0.412 µM (active); in test [16], 2.28 µM; in [17], 1.72 µM (inactive); in test [18], 1.71 µM (inactive). Further, the GI50 in [19] is 5.33 µM (inactive); in test [20] it was 3.7 µM (inactive).
Take `CCc1ccc(/C=C/C(=O)C2CN(CC)CCC2(O)/C=C/c2ccc(CC)cc2)cc1` (stereo not given): the GI50 in test [1] was 1.36 µM (inactive); in test [2], 2.45 µM (inactive); in [3] it was 4.41 µM (inactive); in test [4], 7.08 µM (inactive); in test [5] it was 7.18 µM (inactive); in test [6], 6.92 µM (inactive). Besides, the GI50 was 4.57 µM (inactive) in test [7]; 2.94 µM (inactive) in [8]; 7.62 µM (inactive) in test [9]; 1.55 µM (inactive) in test [10]; 2.2 µM (inactive) in [11]; 2.23 µM (inactive) in test [12]. Besides, the GI50 is 1.75 µM (inactive) in [13]; 1.83 µM (inactive) in [14]; 2.22 µM (inactive) in [15]; 3.24 µM in test [16]; 7.31 µM (inactive) in [17]; 2.31 µM (inactive) in test [18]. Besides, the GI50 was 10.7 µM (inactive) in [19] and 2.06 µM (inactive) in test [20].
Consider `Cc1ccc(NC(=O)CSC(N)=O)cc1C`, for which the GI50 in test [1] is 29.3 µM (inactive); in [2] it was > 100 µM (inactive); in test [3], > 100 µM (inactive); in test [4], > 100 µM (inactive); in test [5] it was > 100 µM (inactive); in test [6], > 100 µM (inactive). The GI50 in [7] was > 100 µM (inactive); in test [8], > 100 µM (inactive); in [9] it was > 100 µM (inactive); in test [10], > 100 µM (inactive); in test [11], 30.8 µM (inactive); in test [12] it was > 100 µM (inactive). Further, the GI50 in test [13] was 48.2 µM (inactive); in [14] it was > 100 µM (inactive); in [15], > 100 µM (inactive); in [16], over 100 µM; in test [17], > 100 µM (inactive); in test [18], 43.4 µM (inactive). In addition, the GI50 in [19] is 98.4 µM (inactive); in test [20], > 100 µM (inactive).
As to `Cn1c2ccc3cc2c(=S)c2cc(ccc21)OCCOCCOCCOCCOCCO3`, the GI50 in test [1], in test [2], in test [3], in [4], in test [5] and in test [6] was > 10 µM (inactive) throughout. Besides, the GI50 in [7], in test [8], in [9], in test [10], in test [11] and in [12] was > 10 µM (inactive) throughout. The GI50 was > 10 µM (inactive) in test [13]; > 10 µM (inactive) in test [14]; > 10 µM (inactive) in test [15]; over 10 µM in test [16]; > 10 µM (inactive) in test [17]; > 10 µM (inactive) in test [18]. Further, the GI50 in test [19] and in [20] was > 10 µM (inactive) throughout.
`COc1cc2c(cc1OCCCN1C(=O)c3cccc4cccc(c34)C1=O)N=C[C@@H]1CCCN1C2=O`: the GI50 in test [1] is 18.2 µM (inactive); in test [2] it was 18.5 µM (inactive); in test [3] it was 34.4 µM (inactive); in [4], > 100 µM (inactive); in [5], 65.5 µM (inactive); in test [6], 40.1 µM (inactive). Further, the GI50 in [7] was 39.6 µM (inactive); in [8], > 95.1 µM (inactive); in [9], > 92 µM (inactive); in [10], > 65.9 µM (inactive); in test [11], 14 µM (inactive); in [12], > 55.8 µM (inactive). In addition, the GI50 in test [13] was 21 µM (inactive); in [14], 31.3 µM (inactive); in [15], > 63.7 µM (inactive); in test [16], 23.1 µM; in test [17], 19.5 µM (inactive); in [18], 83.6 µM (inactive). The results for the GI50 in test [19] and in test [20] were > 100 µM (inactive) and 12.2 µM (inactive), respectively.
On to `Oc1cc(-c2ccc(F)cc2)nc2ncc(Cl)cc12`, for which the GI50 in [1] is 19 µM (inactive); in [2], 22.3 µM (inactive); in [3] it was 3.03 µM (inactive); in [4] it was 35.5 µM (inactive); in test [5], 26.2 µM (inactive); in [6], > 68.9 µM (inactive). For the same molecule, the GI50 in test [7] was 67 µM (inactive); in [8], 18.1 µM (inactive); in [9], 38 µM (inactive); in [10], 58.5 µM (inactive); in test [11], 20.7 µM (inactive); in test [12], > 65.5 µM (inactive). In addition, the GI50 in test [13] is 32.7 µM (inactive); in [14], 26.5 µM (inactive); in [15], 58.6 µM (inactive); in test [16] it was 4.62 µM; in test [17] it was 15.7 µM (inactive); in test [18], 27.6 µM (inactive). Moreover, the GI50 in test [19] is 17.4 µM (inactive); in [20], 17.1 µM (inactive).
As to `CCOC(=O)/C=C/[C@H](O[Si](c1ccccc1)(c1ccccc1)c1ccccc1)C(C)(C)C`, the GI50 in [1] was 3.44 µM (inactive); in test [2] it was > 31.6 µM (inactive); in test [3] it was > 31.6 µM (inactive); in test [4] it was 23.3 µM (inactive); in test [5], > 31.6 µM (inactive); in test [6], 11.1 µM (inactive). The GI50 in test [7] is > 31.6 µM (inactive); in test [8], > 31.6 µM (inactive); in test [9] it was > 31.6 µM (inactive); in test [10] it was > 10 µM (inactive); in test [11], 14.1 µM (inactive); in [12] it was > 31.6 µM (inactive). Moreover, the GI50 in test [13] is > 31.6 µM (inactive); in test [14], 7.03 µM (inactive); in test [15] it was 5.92 µM (inactive); in test [16], over 31.6 µM; in [17], > 31.6 µM (inactive); in test [18], > 31.6 µM (inactive). Also, the GI50 in [19] and in test [20] was > 31.6 µM (inactive) in each case.
`C=C1C(=O)OC2/C=C(\CO)C3OC3C3OC3(C)CC(OC(=O)/C(=C/C)CO)C12` (stereo not given): the GI50 in [1] is 17 µM (inactive); in test [2], 34.4 µM (inactive); in [3] it was > 100 µM (inactive); in test [4] it was > 100 µM (inactive); in test [5], > 100 µM (inactive); in [6] it was > 100 µM (inactive). The GI50 in test [7] was 37.2 µM (inactive); in [8] it was > 100 µM (inactive); in test [9] it was > 100 µM (inactive); in test [10], 42.1 µM (inactive); in [11], 26.4 µM (inactive); in test [12], > 100 µM (inactive). The GI50 is 36.8 µM (inactive) in test [13]; 54.7 µM (inactive) in [14]; > 100 µM (inactive) in [15]; 36.6 µM in test [16]; 25.5 µM (inactive) in [17]; 64 µM (inactive) in test [18]. Moreover, the GI50 in test [19] and in test [20] was > 100 µM (inactive) throughout.
`O=C(Nc1ncc([N+](=O)[O-])s1)c1ccccc1O` [TIZOXANIDE]: the GI50 in test [1] is 7 µM (inactive); in test [2], 15.2 µM (inactive); in [3], 7.55 µM (inactive); in test [4] it was 19.3 µM (inactive); in test [5] it was 12.5 µM (inactive); in test [6] it was 20.7 µM (inactive). Also, the GI50 in test [7] was 13.6 µM (inactive); in test [8] it was 7.89 µM (inactive); in [9], 16.2 µM (inactive); in test [10], 26.4 µM (inactive); in test [11], 18.5 µM (inactive); in [12], 23.5 µM (inactive). In addition, the GI50 in test [13] was 24.4 µM (inactive); in test [14] it was 14.5 µM (inactive); in test [15] it was 13.6 µM (inactive); in test [16], 19.1 µM; in test [17] it was 12.9 µM (inactive); in [18], 45 µM (inactive). For the same molecule, the GI50 in test [19] was 8.75 µM (inactive); in test [20] it was 23.6 µM (inactive).
